From PMC10095708, “Discovery of Novel STING Inhibitors Based on the Structure of the Mouse STING Agonist DMXAA” (Molecules, 2023)
Values joined by “and” are separate entries in the source; they are usually repeats but may differ in a detail not shown here. Equal values may be shown once.

Experiments:
mSTING [1] = target: T1, mSTING (Mus musculus, UniProt Q3TBT3); design: purchased Cisbio; method as in PMID 31927317; conditions: STING reporter cells, agonist activity; cited from earlier work
T1 sequence (Q3TBT3 1-378): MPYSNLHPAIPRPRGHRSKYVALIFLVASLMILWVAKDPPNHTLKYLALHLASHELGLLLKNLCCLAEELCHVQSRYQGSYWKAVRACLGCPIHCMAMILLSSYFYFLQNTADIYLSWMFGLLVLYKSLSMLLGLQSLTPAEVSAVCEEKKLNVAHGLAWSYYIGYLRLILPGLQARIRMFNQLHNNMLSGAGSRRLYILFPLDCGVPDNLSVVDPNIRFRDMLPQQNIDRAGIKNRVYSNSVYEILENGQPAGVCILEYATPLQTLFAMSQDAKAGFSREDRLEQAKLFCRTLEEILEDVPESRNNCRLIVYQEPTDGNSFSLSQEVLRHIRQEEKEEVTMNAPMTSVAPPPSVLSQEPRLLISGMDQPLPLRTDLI

mSTING [2] = target: T1, mSTING; experiment: Cellular assay for STING inhibitory activity, 293T mSTING cells stimulated with 2′,3′-cGAMP (SEAP); conditions: for inhibitory potency in murine STING reporter cells, initial screen: compound at 100 μM
mSTING [3] = target: T1, mSTING; experiment: HTRF STING competition binding (cGAMP displacement) assay, mSTING; design: purchased Cisbio; conditions: for IC50: HTRF displacement assay, means from at least three repeated experiments; for binding to mSTING in displacement assay, in words: concentrations up to 100 μM
Procedure: (§1) Mouse STING binding kits, human STING WT binding kits, human AQ STING binding kits, human H232 STING binding kits were purchased from Cisbio. […] QUANTI-Blue solution, QUANTI-Luc, 2′,3′-cGAMP were purchased from Invivogen. […] CellTiter-Glo luminescent cell viability assay kit was obtained from Promega.
(§2) According to the instructions of STING binding kits, the following solutions were successively added to each well in the 384-well plate: 5 μL of the detection compounds or 2′,3′-cGAMP (positive control) with different concentrations or diluent (negative control); 5 μL of human STING 6His-tagged protein (negative control well was added to detection buffer); 10 μL of STING ligand d2 and Anti 6His-Tb3^+ premixed working solution.

hSTING-AQ = target: T2, hSTING-AQ (Homo sapiens, UniProt Q86WV6, G230A/R293Q); experiment: HTRF STING competition binding (cGAMP displacement) assay, hSTING-AQ; conditions: for IC50: HTRF displacement assay, means from at least three repeated experiments; for binding to hSTING-AQ in displacement assay, in words: concentrations up to 100 μM
T2 construct: purchased Cisbio
T2 sequence (Q86WV6 whole entry G230A/R293Q): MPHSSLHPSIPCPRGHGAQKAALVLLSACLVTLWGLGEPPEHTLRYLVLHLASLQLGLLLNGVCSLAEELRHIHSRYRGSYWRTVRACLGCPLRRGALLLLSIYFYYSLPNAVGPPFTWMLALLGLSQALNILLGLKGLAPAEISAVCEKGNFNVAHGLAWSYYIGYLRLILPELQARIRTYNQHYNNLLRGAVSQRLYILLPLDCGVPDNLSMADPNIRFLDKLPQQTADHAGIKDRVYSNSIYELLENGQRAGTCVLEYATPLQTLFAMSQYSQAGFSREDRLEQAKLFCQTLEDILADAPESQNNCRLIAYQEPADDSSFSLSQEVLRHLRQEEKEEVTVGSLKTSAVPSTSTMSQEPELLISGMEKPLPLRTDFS
Procedure: as §1, §2

hSTING-WT = target: T3, hSTING-WT (Homo sapiens, UniProt Q86WV6, H232R); experiment: HTRF STING competition binding (cGAMP displacement) assay, hSTING-WT; conditions: for IC50: HTRF displacement assay, means from at least three repeated experiments; for binding to hSTING-WT in displacement assay, in words: concentrations up to 100 μM
T3 construct: purchased Cisbio
T3 sequence (Q86WV6 whole entry H232R): as the sequence (Q86WV6 whole entry G230A/R293Q) above, with A230G, H232R, Q293R counted along it
Procedure: as §1, §2

hSTING-R232 = hSTING-R232 (Homo sapiens, UniProt Q86WV6, H232R); experiment: Cellular assay for STING inhibitory activity, 293T hSTING-R232 cells stimulated with 2′,3′-cGAMP (SEAP); conditions: for inhibitory potency in human STING reporter cells, initial screen: compound at 100 μM
hSTING-R232, sequence (Q86WV6 whole entry H232R): as the sequence (Q86WV6 whole entry G230A/R293Q) above, with A230G, H232R, Q293R counted along it

hSTING-H232 = target: T4, hSTING-H232 (Homo sapiens, UniProt Q86WV6); experiment: HTRF STING competition binding (cGAMP displacement) assay, hSTING-H232; conditions: for IC50: HTRF displacement assay, means from at least three repeated experiments; for binding to hSTING-H232 in displacement assay, in words: concentrations up to 100 μM
T4 construct: purchased Cisbio
T4 sequence (Q86WV6 135-379 limits assumed): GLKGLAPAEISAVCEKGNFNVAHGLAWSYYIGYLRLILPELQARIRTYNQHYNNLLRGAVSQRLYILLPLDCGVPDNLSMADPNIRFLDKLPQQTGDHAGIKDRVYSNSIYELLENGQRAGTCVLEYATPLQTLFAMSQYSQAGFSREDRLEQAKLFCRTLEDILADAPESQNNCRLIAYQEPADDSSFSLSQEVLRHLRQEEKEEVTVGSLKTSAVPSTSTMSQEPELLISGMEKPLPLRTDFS
Procedure: as §1, §2

hSTING [4] = test system: hSTING; design: method as in PMID 31927317; conditions: STING reporter cells, agonist activity; cited from earlier work
hSTING [5] = test system: hSTING; design: method as in PMID 31927317; conditions: STING competition binding kits; cited from earlier work
THP-1 cells = experiment: CellTiter-Glo luminescent cell viability assay, THP-1 cells; conditions: 48 h
[6] = test system: STING-triggered NF-κB pathway; experiment: Inhibition of STING dual pathways, THP1-KI-hSTING-R232 cells, NF-κB (SEAP); conditions: THP1-hSTING-R232 cells stimulated with 2′,3′-cGAMP, 24 h; 11 20 µM, 27 33 µM, H151 2 µM
Text: (§3) After the THP-1 reporter cell line stimulation with 2′,3′-cGAMP, we added STING inhibitors with appropriate concentrations for inhibiting the inductions of I IFN and proinflammatory cytokine. […] In addition, to exclude the effect of cytotoxicity of the compounds on the inhibitory activity, we used the CellTiter-Glo kit to assay cellular activity.

293T cells = experiment: CellTiter-Glo luminescent cell viability assay, 293T cells; conditions: 48 h
[7] = test system: STING-triggered IRF pathway; experiment: Inhibition of STING dual pathways, THP1-KI-hSTING-R232 cells, IRF (Lucia luciferase); conditions: THP1-hSTING-R232 cells stimulated with 2′,3′-cGAMP, 24 h; 11 20 µM, 27 33 µM, H151 2 µM
Text: as §3

SMILES | IC50 (mSTING [3]) | IC50 (hSTING-AQ) | binding to hSTING-AQ in displacement assay, in words (hSTING-AQ) | IC50 (hSTING-WT) | binding to hSTING-WT in displacement assay, in words (hSTING-WT) | IC50 (hSTING-H232) | binding to hSTING-H232 in displacement assay, in words (hSTING-H232) | further results
COc1cc2c(=O)c3cccc4c3n(c2c(C)c1C)C(=O)C4 [Compound 3] | 33.3 µM | 58.2 µM | IC50 values at the micromolar level | 18.3 µM | IC50 values at the micromolar level | 36 µM | IC50 values at the micromolar level | EC50 (mSTING [1]): 66.5 ± 10.5 µM; inhibitory potency in murine STING reporter cells, initial screen (mSTING [2]): not being as effective; inhibitory potency in human STING reporter cells, initial screen (hSTING-R232): not being as effective; EC50 (hSTING [4]): 154 ± 9.6 µM; IC50 (hSTING [5]): 10.3 µM
COc1cc2c(=O)c3cccc(CC(=O)O)c3[nH]c2c(C)c1C [Compound 4] | 28.2 µM | 47.6 µM | IC50 values at the micromolar level | 21.1 µM | IC50 values at the micromolar level | 43.8 µM | IC50 values at the micromolar level | EC50 (mSTING [1]): 72.3 ± 11.1 µM; inhibitory potency in murine STING reporter cells, initial screen (mSTING [2]): not being as effective; inhibitory potency in human STING reporter cells, initial screen (hSTING-R232): not being as effective; EC50 (hSTING [4]): 135 ± 12.1 µM; IC50 (hSTING [5]): 13.1 µM
COc1cc2c(=O)c3ccccc3[nH]c2c(C)c1C [Compound 9, 2-methoxy-3,4-dimethylacridin-9(10H)-one] | > 100 µM | > 100 µM | cannot bind to STING | > 100 µM | cannot bind to STING | > 100 µM | cannot bind to STING | binding to mSTING in displacement assay, in words (mSTING [3]): cannot bind to STING
CCOC(=O)Cn1c2ccccc2c(=O)c2cc(OC)c(C)c(C)c21 [Compound 10, Ethyl 2-(2-methoxy-3,4-dimethyl-9-oxoacridin-10 (9H)-yl)acetate] | > 100 µM | > 100 µM | cannot bind to STING | > 100 µM | cannot bind to STING | > 100 µM | cannot bind to STING | binding to mSTING in displacement assay, in words (mSTING [3]): cannot bind to STING
COc1cc2c(=O)c3ccccc3n(CC(=O)O)c2c(C)c1C [Compound 11, 2-(2-methoxy-3,4-dimethyl-9-oxoacridin-10(9H)-yl)acetic acid] | < 20 µM and 19 µM | < 20 µM and 14.3 µM | – | < 20 µM and 5.81 µM | – | < 20 µM and 12.1 µM | – | cytotoxicity, cell viability THP-1 cells (THP-1 cells; 5 to 100 μM): no evidence of cytotoxicity; IC50 (mSTING [2]): 15.5 µM; inhibitory potency in murine STING reporter cells, initial screen (mSTING [2]): excellent inhibition; inhibition of STING-triggered NF-κB pathway activation [6]: significantly inhibited; cytotoxicity, cell viability 293T cells (293T cells; 5 to 100 μM): no evidence of cytotoxicity; inhibition of STING-triggered IRF pathway activation [7]: significantly inhibited; IC50 (hSTING-R232): 19.9 µM; inhibitory potency in human STING reporter cells, initial screen (hSTING-R232): excellent inhibition
COc1cc2c(=O)c3c(Cl)ccc4c3n(c2c(C)c1C)C(=O)C4 [Compound 25, 5-chloro-8-methoxy-9,10-dimethyl-6H-pyrrolo [3,2,1-de]acridine-1,6(2H)-dione] | 32.4 µM | 48 µM | – | 78.1 µM | – | 37.7 µM | – | –
COc1cc2c(=O)c3cc(Cl)cc4c3n(c2c(C)c1C)C(=O)C4 [Compound 26, 4-chloro-8-methoxy-9,10-dimethyl-6H-pyrrolo[3,2,1-de]acridine-1,6(2H)-dione] | 51.5 µM | 65.1 µM | – | > 100 µM | – | 79.1 µM | – | –
COc1cc2c(=O)c3c(F)ccc4c3n(c2c(C)c1C)C(=O)C4 [Compound 27, 5-fluoro-8-methoxy-9,10-dimethyl-6H-pyrrolo[3,2,1-de]acridine-1,6(2H)-dione] | 3.88 µM | 5.82 µM | single-digit micromolar activity | 7.67 µM | single-digit micromolar activity | 6.57 µM | single-digit micromolar activity | IC50 (mSTING [2]): 30.8 µM; inhibitory potency in murine STING reporter cells, initial screen (mSTING [2]): excellent inhibition; inhibition of STING-triggered NF-κB pathway activation [6]: significantly inhibited; binding to mSTING in displacement assay, in words (mSTING [3]): single-digit micromolar activity; inhibition of STING-triggered IRF pathway activation [7]: significantly inhibited; IC50 (hSTING-R232): 38.8 µM; inhibitory potency in human STING reporter cells, initial screen (hSTING-R232): excellent inhibition
COc1cc2c(=O)c3cc(F)cc4c3n(c2c(C)c1C)C(=O)C4 [Compound 28, 4-fluoro-8-methoxy-9,10-dimethyl-6H-pyrrolo[3,2,1-de]acridine-1,6(2H)-dione] | 61 µM | 55.2 µM | – | 88.1 µM | – | 62.4 µM | – | –
COc1cc2c3c(c1)c(=O)c1cc(OC)c(C)c(C)c1n3C(=O)C2 [Compound 29, 4,8-dimethoxy-9,10-dimethyl-6H-pyrrolo[3,2,1-de]acridine-1,6(2H)-dione] | > 100 µM | 70.5 µM | – | > 100 µM | – | 82.8 µM | – | –
COc1cc2c(=O)c3cccc(C(=O)O)c3[nH]c2c(C)c1C [Compound 33, 7-methoxy-5,6-dimethyl-9-oxo-9,10-dihydroacridine-4-carboxylic acid] | > 100 µM | > 100 µM | inactive | > 100 µM | inactive | > 100 µM | inactive | binding to mSTING in displacement assay, in words (mSTING [3]): inactive
COc1cc(C(=O)O)c2[nH]c3c(C)c(C)c(OC)cc3c(=O)c2c1 [Compound 34, 2,7-dimethoxy-5,6-dimethyl-9-oxo-9,10-dihydroacridine-4-carboxylic acid] | > 100 µM | > 100 µM | inactive | > 100 µM | inactive | > 100 µM | inactive | binding to mSTING in displacement assay, in words (mSTING [3]): inactive
COc1cc2c(=O)c3c(F)ccc(CC(=O)O)c3[nH]c2c(C)c1C [Compound 35] | > 100 µM | > 100 µM | – | > 100 µM | – | > 100 µM | – | –
COc1cc2c(=O)c3c(Cl)ccc(CC(=O)O)c3[nH]c2c(C)c1C [Compound 36] | > 100 µM | > 100 µM | – | > 100 µM | – | > 100 µM | – | –
COc1cc2c(=O)c3cc(F)cc(CC(=O)O)c3[nH]c2c(C)c1C [Compound 37] | > 100 µM | > 100 µM | – | > 100 µM | – | > 100 µM | – | –
COc1cc2c(=O)c3cc(Cl)cc(CC(=O)O)c3[nH]c2c(C)c1C [Compound 38] | > 100 µM | > 100 µM | – | > 100 µM | – | > 100 µM | – | –
CCc1ccc(NC(=O)Nc2c[nH]c3ccccc23)cc1 [Compound H151, reference compound] | – | – | – | – | – | – | – | cytotoxicity, cell viability THP-1 cells (THP-1 cells; at 10 μM): significant cytotoxicity; cytotoxicity, cell viability 293T cells (293T cells; at 10 μM): significant cytotoxicity
